Data reported in US20080139386A1 (priority 2004, published 2008).
Where two headings read alike, the source gives them in different places.

System: Pyricularia oryzae
Type: in vivo
Conditions: rice seedlings cultivar Tai-Nong 67, protective, inoculated next day, assessed after six days

| SMILES | Efficacy in % of the untreated control (4 ppm active compound in the spray liquor) [%] | Efficacy in % of the untreated control (1 ppm active compound in the spray liquor) [%] | Efficacy in % of the untreated control (16 ppm active compound in the spray liquor) [%] |
| --- | --- | --- | --- |
| CC1CCN(c2c(-c3c(F)cc(F)cc3F)c(Cl)nc3ncnn23)CC1 [compound I, 5-chloro-7-(4-methylpiperidin-1-yl)-6-(2,4,6-trifluorophenyl)-[1,2,4]triazolo[1,5-a]pyrimidine] | 31 |  |  |
| O=C(Nc1ccccc1)N(Cc1ccc(Cl)cc1)C1CCCC1 [compound II, 1-(4-chlorobenzyl)-1-cyclopentyl-3-phenylurea] |  | 0 | 0 |
